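Compound exposure: 48 hours, 5 concentrations, 96-well plates. Definition used: TGI = concentration required for complete inhibition of growth.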
Legend:
Test in all cases: NCI-60 cell line screen, 48 h
[1] = system: 786-0 renal
[2] = system: A549 NSCLC
[3] = system: ACHN renal
[4] = system: BT-549 breast
[5] = system: CAKI-1 renal
[6] = system: CCRF-CEM leukemia
[7] = system: COLO 205 colon
[8] = system: DU-145 prostate
[9] = system: EKVX NSCLC
[10] = system: HCC-2998 colon
[11] = system: HCT-116 colon
[12] = system: HCT-15 colon
[13] = system: HL-60(TB) leukemia
[14] = system: HOP-62 NSCLC
[15] = system: HS 578T breast
[16] = system: HT29 colon
[17] = system: IGROV1 ovarian
[18] = system: K-562 leukemia
[19] = system: KM12 colon
[20] = system: M14 melanoma
[21] = system: MALME-3M melanoma
[22] = system: MCF7 breast
[23] = system: MDA-MB-231 breast
[24] = system: MDA-MB-435
[25] = system: MDA-N
[26] = system: MOLT-4 leukemia
[27] = system: NCI-H226 lung
[28] = system: NCI-H23 lung
[29] = system: NCI-H460 lung
[30] = system: NCI-H522 lung
[31] = system: NCI/ADR-RES ovarian
[32] = system: OVCAR-3 ovarian
[33] = system: OVCAR-4 ovarian
[34] = system: OVCAR-5 ovarian
[35] = system: OVCAR-8 ovarian
[36] = system: PC-3 prostate
[37] = system: RPMI-8226 leukemia
[38] = system: RXF 393 renal
[39] = system: SF-268 CNS
[40] = system: SF-295 CNS
[41] = system: SK-MEL-2 melanoma
[42] = system: SK-MEL-28 melanoma
[43] = system: SK-MEL-5 melanoma
[44] = system: SK-OV-3 ovarian
[45] = system: SN12C renal
[46] = system: SNB-19 CNS
[47] = system: SNB-75 CNS
[48] = system: SW-620 colon
[49] = system: T-47D breast
[50] = system: TK-10 renal
[51] = system: U251 CNS
[52] = system: UACC-257 melanoma
[53] = system: UACC-62 melanoma
[54] = system: UO-31 renal
[55] = system: A498 renal
[56] = system: HOP-92 NSCLC
[57] = system: LOX IMVI melanoma
[58] = system: SF-539 CNS
[59] = system: SR leukemia

Measured: TGI

Cc1ccccc1NC(=O)/C(C#N)=N\Nc1nc[nH]c1C(N)=O
> 100 µM: [1] | [2] | [3] | [4] | [6] | [7] | [8] | [9] | [10] | [11] | [12] | [13] | [14] | [15] | [16] | [17] | [18] | [19] | [20] | [21] | [22] | [23] | [24] | [25] | [26] | [27] | [28] | [29] | [30] | [31] | [32] | [33] | [34] | [35] | [36] | [37] | [38] | [39] | [40] | [41] | [42] | [43] | [44] | [45] | [46] | [47] | [48] | [49] | [50] | [51] | [52] | [53] | [54]
18.2 µM: [5]

CC(C)(O)[C@H]1[C@@H]2OC(=O)[C@H]1[C@]1(O)C[C@H]3OC34C(=O)O[C@H]2[C@@]41C (stereo partly drawn) (tested in a mixture with another compound)
> 100 µM: [1] | [55] | [2] | [3] | [4] | [5] | [6] | [7] | [8] | [9] | [10] | [11] | [12] | [13] | [14] | [56] | [15] | [16] | [17] | [18] | [19] | [57] | [20] | [21] | [22] | [23] | [24] | [25] | [26] | [27] | [28] | [29] | [30] | [32] | [33] | [34] | [35] | [36] | [37] | [38] | [39] | [40] | [58] | [41] | [42] | [43] | [44] | [45] | [46] | [47] | [48] | [49] | [50] | [51] | [52] | [53] | [54]

CCn1c(=O)c2c3ccc(O)cc3oc2c2ccc(O)cc21
70.4 µM: [15]
84.5 µM: [55]
69.1 µM: [49]
88 µM: [3]
74 µM: [11]
> 100 µM: [1] | [2] | [4] | [5] | [6] | [7] | [8] | [10] | [12] | [14] | [56] | [16] | [17] | [18] | [19] | [20] | [21] | [22] | [23] | [24] | [25] | [26] | [27] | [28] | [29] | [30] | [31] | [32] | [33] | [35] | [36] | [38] | [39] | [40] | [58] | [42] | [43] | [44] | [45] | [46] | [47] | [59] | [48] | [50] | [51] | [52] | [53]
7.39 µM: [9]
78.3 µM: [54]

CCOC(=O)/C(=C\NC(C)(C)C)c1nc2ccccc2o1
63.4 µM: [27]
92.1 µM: [56]
50.8 µM: [37]
68.5 µM: [3]
51.1 µM: [52]
55.3 µM: [7]
63.9 µM: [15]
50.6 µM: [53]
19.1 µM: [13]
80.8 µM: [16]
65.4 µM: [57]
48.6 µM: [59]
70.7 µM: [1]
67.1 µM: [38]
54.6 µM: [6]
85.6 µM: [21]
> 100 µM: [55] | [2] | [4] | [5] | [8] | [9] | [11] | [12] | [14] | [17] | [19] | [20] | [22] | [24] | [25] | [28] | [29] | [30] | [31] | [32] | [33] | [34] | [35] | [39] | [40] | [58] | [42] | [44] | [45] | [46] | [47] | [48] | [50]
26 µM: [43]

O=C(O)Cc1[nH]cnc1C(=O)O
> 100 µM: [1] | [55] | [2] | [3] | [4] | [5] | [6] | [7] | [8] | [9] | [10] | [11] | [12] | [13] | [14] | [56] | [15] | [16] | [17] | [18] | [19] | [57] | [20] | [21] | [22] | [23] | [24] | [25] | [26] | [27] | [28] | [29] | [30] | [31] | [32] | [33] | [34] | [35] | [36] | [37] | [38] | [39] | [40] | [58] | [41] | [42] | [43] | [44] | [45] | [46] | [47] | [48] | [49] | [50] | [51] | [52] | [53] | [54]

N#CC(C#N)=C1CCCCc2ccc([N+](=O)[O-])cc21
54.8 µM: [11]
33 µM: [1]
39.9 µM: [30]
87.5 µM: [37]
> 100 µM: [55] | [2] | [3] | [4] | [5] | [6] | [7] | [8] | [9] | [10] | [12] | [13] | [14] | [56] | [15] | [16] | [17] | [18] | [19] | [57] | [20] | [21] | [22] | [23] | [24] | [25] | [26] | [27] | [28] | [29] | [31] | [32] | [33] | [34] | [35] | [36] | [38] | [39] | [40] | [58] | [41] | [42] | [43] | [44] | [45] | [46] | [47] | [48] | [49] | [50] | [51] | [52] | [53] | [54]

COc1ccccc1N1C(=O)/C(=C\c2cc(OC)c(OC)c(OC)c2)S(=O)(=O)C1c1ccccc1 (stereo not drawn)
96.3 µM: [21]
61.1 µM: [38]
> 100 µM: [1] | [55] | [2] | [3] | [4] | [5] | [7] | [8] | [10] | [11] | [12] | [14] | [56] | [15] | [18] | [19] | [57] | [20] | [22] | [23] | [26] | [27] | [28] | [29] | [32] | [33] | [35] | [39] | [40] | [41] | [42] | [43] | [45] | [46] | [59] | [48] | [49] | [50] | [51] | [52] | [53] | [54]
72.1 µM: [31]
48.3 µM: [25]
68 µM: [58]
50.7 µM: [30]
41.3 µM: [24]
57.1 µM: [37]
61.2 µM: [6]
76.5 µM: [44]
